Patent US20210252175A1, “NOVEL COMPOUNDS FOR DIAGNOSIS” (AC IMMUNE SA, priority 2018, published 2021)
Entries after “also recorded” stand apart in the source; their conditions may differ. Like-named read-outs stand apart in the source and are kept apart here.

Assays:
[1] = biological target: T1, Recombinant human full-length wild-type aSyn fibrils (Homo sapiens, UniProt P37840); experiment: Radio-binding competition assay on recombinant aSyn fibrils; conditions: for Kd: read-out: Kd of the radioligand on aSyn fibrils; for improvement of Ki value on aSyn fibrils compared to compounds 70 and 71 of WO2017/153601: head-to-head within the same measurement; for binding to aSyn fibrils in comparison to Examples 70 and 71 of WO2017/153601: comparison of Ki values of Table 9
T1 construct: Recombinant human full-length wild-type aSyn bacterially expressed; purchased rPeptide, US
Experimental: Recombinant human full-length wild-type aSyn bacterially expressed was obtained from a commercial provider (rPeptide, US). Protein preparation was transferred into polycarbonate centrifuge tubes (8×51 mm; Beckman 355657) and centrifuged at 100,000 g (38,000 rounds per minute, RPM) in an ultracentrifuge (Beckman, XL100K) for 60 min at 4° C. using the pre-cooled 50.4 Ti rotor (Beckman) to pellet any aggregated material. Supernatant was transferred into a sterile, low retention tube at a final concentration of 5 mg/mL and final volume of 0.5 mL in PBS. The protein was placed in a Thermomixer (Eppendorf) and incubated for 7 days at 37° C. with orbital shaking at 1000 rpm to generate aSyn fibrils.
Material containing aSyn fibrils was transferred into polycarbonate centrifuge tubes (8×51 mm; Beckman 355657) and centrifuged at 100,000 g (38,000 RPM) in an ultracentrifuge (Beckman, XL100K) for 60 min at 4° C. using the pre-cooled 50.4 Ti rotor. The supernatant containing still monomeric aSyn was transferred into new tubes and its concentration was determined. The pellet was resuspended with equal volume of PBS and subjected to further rounds of ultracentrifugation until the concentration obtained for the supernatant was below 0.1 mg/mL. The pellet obtained at the last round of ultracentrifugation containing aSyn fibrils was aliquoted and stored at −80° C. until use. Aggregated aSyn was used at a concentration of 1 μM in radiobinding assays.
Determination of the Binding Affinity (Ki) by Radio-Binding Competition Assay Recombinant aSyn fibrils at concentration of 1 μM were incubated with [^3H] Example 69 disclosed in WO2017/153601, used as aSyn reference binder, at concentrations between 25 nM and 35 nM. The example compounds of this invention were incubated at increasing concentrations in the range 0.4 nM to 2 μM for 120 minutes at 25° C. 90 μL of samples in duplicates were then filtered under vacuum on a GF/C filter plate (PerkinElmer 6005174) to trap the aSyn fibrils with the bound radio-ligand, and washed five times with Tris 50 mM buffer pH 7-5. The GF/C filters were then vacuum-dried, 50 μL scintillation liquid (Ultimate Gold MB, PerkinElmer) was added in each well, and the filters were analyzed on a Microbeta2 device. Non-specific signal was determined with an excess of un-labeled ligand and specific binding was calculated by subtracting the non-specific signal from the total signal. Competition was calculated as percent, where 0% was defined as the specific binding in the presence of vehicle (0.1% DMSO in 50 mM Tris in 0.9% NaCl, 0.1% BSA) and 100% as the values obtained in the presence of excess cold Example 69 disclosed in WO2017/153601. All measurements were performed with at least two technical replicates. The K; values were calculated by nonlinear regression, one site specific binding using Prism V7 (GraphPad). Ki values to recombinant aSyn fibrils were determined in independent experiments and two different batches of aSyn fibrils, derived from the same source but different lots of monomeric aSyn. Results of radio-binding competition assay for the example compounds tested in parallel within the same experiment are shown in Table 9 as measurements A and B. Measurement A was performed on one batch of aSyn fibrils; the Kd for the radioligand [^3H] Example 69 disclosed in WO20171153601 for this batch of aSyn fibrils was 32 nM. Measurement B was performed on second batch of aSyn fibrils, the corresponding Kd for the radioligand [^3H] Example 69 disclosed in WO2017/153601 for the second batch of aSyn fibrils was 60 nM.

[2] = biological target: T2, Aβ pathological aggregates present in the human AD insoluble fractions (Homo sapiens, UniProt P05067); experiment: Radio-binding competition assay on human AD insoluble fraction; conditions: for Ki: radioligand [3H] Example 47 of WO2017/153601 at 7 nM
T2 construct: "4.7 g of frontal lobe tissue from post-mortem brain of one Alzheimer's disease (AD) patient"
T2 sequence (P05067 whole entry): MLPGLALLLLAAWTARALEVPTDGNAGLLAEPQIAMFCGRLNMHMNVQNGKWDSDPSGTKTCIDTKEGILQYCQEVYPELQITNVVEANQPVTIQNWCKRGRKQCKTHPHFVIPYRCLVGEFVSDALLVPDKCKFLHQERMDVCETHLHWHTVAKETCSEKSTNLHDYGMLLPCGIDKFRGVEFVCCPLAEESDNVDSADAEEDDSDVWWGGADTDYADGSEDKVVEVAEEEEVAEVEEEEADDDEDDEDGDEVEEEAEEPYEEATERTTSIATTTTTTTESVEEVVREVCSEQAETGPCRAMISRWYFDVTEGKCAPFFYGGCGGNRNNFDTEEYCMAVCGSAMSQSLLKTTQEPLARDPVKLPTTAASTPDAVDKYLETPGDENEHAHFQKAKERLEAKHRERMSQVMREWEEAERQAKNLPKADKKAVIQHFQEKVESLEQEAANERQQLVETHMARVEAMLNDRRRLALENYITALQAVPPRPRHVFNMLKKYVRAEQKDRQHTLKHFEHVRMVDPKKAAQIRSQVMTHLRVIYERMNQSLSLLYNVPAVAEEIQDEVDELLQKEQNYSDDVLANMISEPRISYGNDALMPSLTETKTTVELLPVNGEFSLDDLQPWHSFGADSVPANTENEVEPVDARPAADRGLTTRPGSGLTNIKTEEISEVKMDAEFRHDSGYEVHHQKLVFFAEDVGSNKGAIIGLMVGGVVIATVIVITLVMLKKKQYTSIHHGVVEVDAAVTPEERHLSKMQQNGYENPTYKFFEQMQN
Experimental: 4.7 g of frontal lobe tissue from post-mortem brain of one Alzheimer's disease (AD) patient were purchased from an external provider (Tissue Solutions Ltd., UK). The patient was a […] and died […]. The brain sample was collected 7.7 hours post-mortem and characterized for Braak disease stage (Braak, H.; Braak, E. Acta Neuropathol., 1991, 82, 239-259) as stage VI. For the preparation of the insoluble fractions, around 3 g of the AD human brain was thawed on ice and homogenized with 8.9 mL of homogenization buffer (0.75 M NaCl, 5 mM EDTA, 50 mM Tris-HCl, pH 7.5) supplemented with protease inhibitors (Complete; Roche 11697498001) in a glass Dounce homogenizer. The homogenization was performed at 4° C. The homogenate was transferred into polycarbonate centrifuge tubes (16×76 mm; Beckman 355603) and centrifuged at 100,000 g (38,000 RPM) in an ultracentrifuge (Beckman, XL100K) for 60 min at 4° C. using the pre-cooled 70.1 rotor (Beckman, 342184). Supernatants were discarded and pellets were re-suspended in 8.9 mL of homogenization buffer supplemented with 1% Triton X-100 (Sigma 93426) and processed with glass Dounce homogenizer at 4° C. The solution was then transferred into polycarbonate centrifuge bottles (16×76 mm; Beckman 355603) and centrifuged at 100,000 g (38,000 RPM) in an ultracentrifuge (Beckman, XL100K) for 60 min at 4° C. using the 70.1 Ti rotor. The process was repeated one more time (supernatants were discarded and pellets were re-suspended in 8.9 mL of homogenization buffer supplemented with 1% Triton X-100 and 1M sucrose processed with glass Dounce homogenizer at 4° C. The solution was then centrifuged at 100,000 g (38,000 RPM) for 60 min at 4° C. using the 70.1 Ti rotor). Supernatant was discarded and pellet was resuspended in 4 mL of PBS to obtain the insoluble fraction. The material was aliquoted and stored at −80° C. until use.
AD insoluble fractions diluted 1/100 were incubated in the presence of [^3H] Example 47 disclosed in WO2017/153601 used as Aβ reference binder, at a concentration of 7 nM and the example compounds of this invention were prepared at increasing concentrations in the range 0.4 nM to 2 μM for 120 minutes at 25° C. 90 μL of samples in duplicates were then filtered under vacuum on a GF/C filter plate (PerkinElmer 6005174) to trap the Aβ aggregates within the AD insoluble fractions with the bound radio-ligand, and washed five times with Tris 50 mM buffer pH 7-5. The GF/C filters were then vacuum-dried, 50 μL scintillation liquid (Ultimate Gold MB, PerkinElmer) was added in each well, and the filters were analyzed on a Microbeta2 device. Non-specific signal was determined with an excess of un-labeled ligand and specific binding was calculated by subtracting the non-specific signal from the total signal. Competition was calculated as percent, where 0% was defined as the specific binding in the presence of vehicle (0.1% DMSO in 50 mM Tris in 0.9% NaCl, 0.1% BSA) and 100% as the values obtained in the presence of excess cold Example 47 disclosed in WO2017/153601. The Ki values were calculated by nonlinear regression, one site specific binding using Prism V7 (GraphPad). Ki values to AD insoluble fraction were determined in independent experiments. Results of radio-binding competition assay on AD insoluble fraction are shown in Table 9 as measurements C and D. The Kd for the radioligand [^3H] Example 47 disclosed in WO2017/153601 on the AD insoluble fraction in measurements C and D was 8 nM.
Example compounds are ranked based on the measured Ki values to Aβ pathological aggregates present in the AD insoluble fractions.

[3] = measurement B, second batch of aSyn fibrils, radioligand [3H] Example 69 of WO2017/153601 (Kd 60 nM), read-out: Ki on aSyn Fibrils, measurement B
[4] = measurement C, read-out: Ki on human AD-Insoluble Fraction, measurement C
[5] = measurement D, read-out: Ki on human AD-Insoluble Fraction, measurement D
[6] = measurement A, first batch of aSyn fibrils, radioligand [3H] Example 69 of WO2017/153601 (Kd 32 nM), read-out: Ki on aSyn Fibrils, measurement A

Compound | Ki [1, 3] [nM] | Ki [2, 4] [nM] | Ki [2, 5] [nM] | binding to aSyn fibrils in comparison to Examples 70 and 71 of WO2017/153601 [1] | Ki [1, 6] [nM] | other results
[3H]C([3H])([3H])N1CCN(c2ccc3nc(-c4ccc(N5CCCC5)nc4)sc3c2)C(=O)C1 [[^3H] Example 69 of WO2017/153601, reference compound] | – | – | – | – | – | Kd ([1]; batch of aSyn fibrils of measurement A): 32 nM; Kd ([1]; second batch of aSyn fibrils, measurement B): 60 nM
CN1CCN(c2ccc3nc(-c4ccc(N5CC[C@@H](F)C5)nc4)sc3n2)C(=O)C1 [Example 4] | – | – | – | – | – | improvement of Ki value on aSyn fibrils compared to compounds 70 and 71 of WO2017/153601 [1]: improved by at least twofold
CN1CCN(c2ncc3nc(-c4ccc(N5CC[C@@H](F)C5)nc4)sc3n2)C(=O)C1 [Example 3] | 28.3 | > 500 | > 500 | – | – | –
CN1CCN(c2ncc3nc(-c4ccc(N5CC[C@H](F)C5)nc4)sc3n2)C(=O)C1 [Example 4] | 52.8 | – | > 500 | – | – | –
CN1CCN(c2cc3sc(-c4ccc(N5CC[C@@H](F)C5)nc4)nc3cn2)C(=O)C1 [Example 1] | 31.9 | > 500 | – | – | 14.7 | improvement of Ki value on aSyn fibrils compared to compounds 70 and 71 of WO2017/153601 [1]: improved by at least twofold
CN1CCN(c2ccc3nc(-c4ccc(N5CC[C@@H](F)C5)nc4)sc3c2)C(=O)C1 [Example 70 of WO2017/153601, reference compound] | 97.7 | > 500 | – | – | 39 | –
CN1CCN(c2ccc3nc(-c4ccc(N5CC[C@H](F)C5)nc4)sc3c2)C(=O)C1 [Example 71 of WO2017/153601, reference compound] | 73.7 | > 500 | – | – | 46.9 | –
CN1CCN(c2ccc3nc(-c4ccc(N5CC[C@H](F)C5)nc4)sc3n2)C(=O)C1 [Example 5] | – | – | – | – | – | improvement of Ki value on aSyn fibrils compared to compounds 70 and 71 of WO2017/153601 [1]: improved by at least twofold
CN1CCN(c2cc3sc(-c4ccc(N5CC[C@H](F)C5)nc4)nc3cn2)C(=O)C1 [Example 2] | 31.9 | > 500 | > 500 | – | 12.2 | improvement of Ki value on aSyn fibrils compared to compounds 70 and 71 of WO2017/153601 [1]: improved by at least twofold
[3H]C([3H])([3H])Nc1ccc(-c2ccc3cc(-c4cccnc4)sc3n2)cn1 [[^3H] Example 47 of WO2017/153601, reference compound] | – | – | – | – | – | Kd ([2]; measurements C and D, read-out: Kd of the radioligand on the AD insoluble fraction): 8 nM
CN1CCN(c2ccc3nc(-c4ccc(N5CC[C@@H](F)C5)nc4)sc3n2)C(=O)C1 [Example 5] | 41.7 | – | > 500 | – | – | –
CN1CCN(c2cc3sc(-c4cnc(N5CCC5)c(F)c4)nc3cn2)C(=O)C1 [Example 3C] | – | – | > 500 | improved; also recorded: considerably greater affinity | 5.8 | –

Now from value to molecule, other results behind:

Ki [1, 3] [nM] | Ki [2, 4] [nM] | Ki [2, 5] [nM] | binding to aSyn fibrils in comparison to Examples 70 and 71 of WO2017/153601 [1] | Ki [1, 6] [nM] | Compound | other results
– | – | > 500 | similar | 55.3 | CN1CCN(c2ncc3nc(-c4ccc(N5CC(F)C5)nc4)sc3n2)C(=O)C1 [Example 7A] | –
96.8 | – | > 500 | similar | – | CN1CCN(c2cc3sc(-c4ccc(N5CC(F)C5)nc4)nc3cn2)C(=O)C1 [Example 3A] | –
– | 50 to 500 | 50 to 500 | improved | 27.8 | CNc1ncc(-c2nc3cnc(N4CCN(C)CC4=O)cc3s2)cc1F [Example 3B] | –
– | – | > 500 | improved | 38.4 | CN1CCN(c2cc3sc(-c4cnc(N5CC[C@@H](F)C5)nc4)nc3cn2)C(=O)C1 [Example 3D] | –
– | – | > 500 | improved | 31.3 | CN1CCN(c2ncc3nc(-c4ccc(N5CCC[C@@H](F)C5)nc4)sc3n2)C(=O)C1 [Example 7B] | –
– | > 500 | > 500 | improved | 34.2 | CN1CCN(c2ncc3nc(-c4ccc(N5CCC[C@H](F)C5)nc4)sc3n2)C(=O)C1 [Example 7C] | –
